How the values were obtained:
Assay type in all cases: biochemical
[1] = molecular target: T1, EGFR-TK (epidermal growth factor receptor tyrosine kinase) (Homo sapiens, UniProt P00533); experiment: ADP-Glo kinase assay
T1 construct: tyrosine kinase (TK) domain

[2] = molecular target: T2, HER2 (Homo sapiens, UniProt P04626); experiment: kinase inhibition assay (ADP-Glo)
T2 construct: gene ERBB2

[3] = molecular target: T3, JAK3 (Homo sapiens, UniProt P52333); experiment: kinase inhibition assay (ADP-Glo)
T3 sequence (P52333 1-1124): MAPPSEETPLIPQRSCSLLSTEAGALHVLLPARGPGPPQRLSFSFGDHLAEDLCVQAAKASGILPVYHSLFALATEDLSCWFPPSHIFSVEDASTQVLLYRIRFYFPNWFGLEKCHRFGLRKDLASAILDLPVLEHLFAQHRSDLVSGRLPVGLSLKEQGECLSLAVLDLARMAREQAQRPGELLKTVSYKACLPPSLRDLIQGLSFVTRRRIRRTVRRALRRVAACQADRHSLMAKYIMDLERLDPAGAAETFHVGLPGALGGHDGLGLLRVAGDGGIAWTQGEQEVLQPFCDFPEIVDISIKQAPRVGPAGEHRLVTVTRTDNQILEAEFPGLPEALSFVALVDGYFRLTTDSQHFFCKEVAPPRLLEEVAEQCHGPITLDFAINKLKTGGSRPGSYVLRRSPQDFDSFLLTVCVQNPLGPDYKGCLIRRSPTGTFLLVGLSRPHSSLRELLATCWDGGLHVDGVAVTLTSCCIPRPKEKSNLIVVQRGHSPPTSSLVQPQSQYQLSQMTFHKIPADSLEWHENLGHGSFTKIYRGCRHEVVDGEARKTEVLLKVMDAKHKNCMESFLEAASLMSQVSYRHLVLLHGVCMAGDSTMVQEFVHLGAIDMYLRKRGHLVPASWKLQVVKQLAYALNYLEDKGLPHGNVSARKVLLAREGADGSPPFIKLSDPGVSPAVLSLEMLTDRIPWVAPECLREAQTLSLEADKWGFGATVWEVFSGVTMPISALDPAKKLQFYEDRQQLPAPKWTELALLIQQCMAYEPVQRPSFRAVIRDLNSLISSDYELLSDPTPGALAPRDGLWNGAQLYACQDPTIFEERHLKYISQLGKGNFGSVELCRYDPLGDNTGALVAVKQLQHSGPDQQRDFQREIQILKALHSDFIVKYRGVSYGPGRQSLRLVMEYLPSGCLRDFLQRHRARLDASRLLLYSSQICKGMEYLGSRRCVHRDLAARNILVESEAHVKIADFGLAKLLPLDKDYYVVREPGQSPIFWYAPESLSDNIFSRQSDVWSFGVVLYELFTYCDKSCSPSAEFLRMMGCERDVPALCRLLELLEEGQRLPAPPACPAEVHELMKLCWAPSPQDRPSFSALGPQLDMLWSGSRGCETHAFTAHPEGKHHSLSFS

T2 sequence (P04626 23-1255): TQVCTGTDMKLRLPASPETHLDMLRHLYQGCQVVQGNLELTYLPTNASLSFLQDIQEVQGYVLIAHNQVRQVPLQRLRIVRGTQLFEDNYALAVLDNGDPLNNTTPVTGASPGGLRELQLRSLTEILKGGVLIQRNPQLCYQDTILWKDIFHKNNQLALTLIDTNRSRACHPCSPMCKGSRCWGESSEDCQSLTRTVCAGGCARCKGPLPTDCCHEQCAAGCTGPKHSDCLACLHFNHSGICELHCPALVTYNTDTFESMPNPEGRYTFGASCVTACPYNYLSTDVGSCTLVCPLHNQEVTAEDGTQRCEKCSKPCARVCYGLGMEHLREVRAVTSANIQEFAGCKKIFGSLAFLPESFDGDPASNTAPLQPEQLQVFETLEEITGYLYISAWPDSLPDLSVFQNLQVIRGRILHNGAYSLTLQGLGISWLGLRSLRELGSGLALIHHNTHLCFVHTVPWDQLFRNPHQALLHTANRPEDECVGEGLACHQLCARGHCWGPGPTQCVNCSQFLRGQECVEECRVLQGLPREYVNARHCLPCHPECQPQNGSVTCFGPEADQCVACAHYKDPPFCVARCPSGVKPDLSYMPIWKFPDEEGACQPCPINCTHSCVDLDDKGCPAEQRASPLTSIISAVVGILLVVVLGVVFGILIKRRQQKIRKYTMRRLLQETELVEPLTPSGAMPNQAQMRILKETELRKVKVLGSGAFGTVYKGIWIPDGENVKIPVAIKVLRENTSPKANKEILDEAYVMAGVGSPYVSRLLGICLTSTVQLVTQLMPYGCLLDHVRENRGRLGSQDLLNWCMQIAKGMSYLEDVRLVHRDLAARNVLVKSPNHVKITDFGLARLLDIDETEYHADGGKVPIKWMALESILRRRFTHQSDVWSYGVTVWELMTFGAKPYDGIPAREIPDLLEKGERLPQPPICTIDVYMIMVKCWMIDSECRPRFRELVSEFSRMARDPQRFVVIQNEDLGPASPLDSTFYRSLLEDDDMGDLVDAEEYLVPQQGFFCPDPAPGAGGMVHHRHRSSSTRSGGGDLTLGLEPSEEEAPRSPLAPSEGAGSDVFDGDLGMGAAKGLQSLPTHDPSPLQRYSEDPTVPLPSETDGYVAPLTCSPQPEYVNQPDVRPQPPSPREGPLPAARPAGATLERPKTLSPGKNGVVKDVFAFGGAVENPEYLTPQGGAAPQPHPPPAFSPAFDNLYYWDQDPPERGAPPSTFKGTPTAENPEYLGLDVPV
T1 sequence (P00533 712-979 limits assumed): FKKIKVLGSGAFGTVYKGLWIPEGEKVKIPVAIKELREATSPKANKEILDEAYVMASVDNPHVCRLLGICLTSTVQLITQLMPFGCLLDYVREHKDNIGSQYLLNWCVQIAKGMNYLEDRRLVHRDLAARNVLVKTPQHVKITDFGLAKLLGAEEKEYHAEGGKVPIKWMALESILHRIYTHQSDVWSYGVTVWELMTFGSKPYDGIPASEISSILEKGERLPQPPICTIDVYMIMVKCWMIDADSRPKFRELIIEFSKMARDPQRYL

## COc1cc(/C=C/S(=O)(=O)c2ccccc2)cc(OC)c1OC [VF16]
[1]
  IC50: 7.85 ± 0.88 nM
[2]
  IC50: 312 ± 0.28 nM
[3]
  IC50: 158 ± 4.75 nM

— paper PMC8069501, “Identification of Vinyl Sulfone Derivatives as EGFR Tyrosine Kinase Inhibitor: In Vitro and In Silico Studies” (Molecules, 2021)
